Experimental findings from patent publication US12128035B2, “Activating pyruvate kinase R” (Novo Nordisk Health Care AG, priority 2021, dated 2024) are described below.

This data set is described as follows: Phase 1 SAD/MAD: plasma pharmacokinetics in healthy volunteers. Type of data set: in vivo, human. As to conditions: 14 days of dosing in healthy subjects. An excerpt: This is a first-in-human (FIH), Phase 1 study of Compound 1 that will characterize the safety, PK, and PD of Compound 1 after a single dose and after repeated dosing first in healthy adult volunteers and then in adolescents or adults with sickle cell disease. Initially, a dose range of Compound 1 in single ascending dose (SAD) escalation cohorts will be explored in healthy subjects. Enrollment of healthy subjects into 2-week multiple ascending dose (MAD) escalation cohorts will be initiated once the safety and PK from at least two SAD cohorts is available to inform the doses for the 2-week MAD portion of the study. The MAD cohorts will then run in parallel to the single dose cohorts. A single dose cohort is planned to understand food effects (FE) on the PK of Compound 1. […]
In this study, SAD/MAD cohorts are randomized (3 to 1) to receive Compound 1 or placebo (P). Compound 1 was evaluated first in 4 healthy SAD cohorts and 4 healthy MAD (14-day dosing period) cohorts. Based on the safety, and PK/PD profile from HS, Compound 1 is then evaluated in 1 SCD SAD cohort and 2 SCD MAD cohorts. Specifically, based on the safety and pharmacokinetic/pharmacodynamics (PK/PD) profile in healthy volunteer studies, Compound 1 is evaluated in patients (pts) with SCD, first in a single dose (SD or SAD) cohort and then in multiple-dose (MD or MAD) cohorts (14-day and 12-week). […]

On to `O=C([C@H](CO)c1ccccc1)N1CC2=C(C1)CN(S(=O)(=O)c1cnc3c(c1)OCCO3)C2` (single isomer, unassigned) [Compound 1], for which the “clearance on day 1 and day 14” value is “unchanged”.
